Measured values taken from patent publication US20130197085A1, “AGENT AND METHOD FOR STABILIZING MEMBRANE PROTEIN” (priority 2007, published 2013).

Molecular target: T1, BSEP expressing on canalicular membrane (Rattus norvegicus, UniProt O70127)
T1 construct: from tissue; host or cells: liver of male SD rats: in vivo for A27, canalicular membrane vesicles for A28 and A29
T1 sequence (O70127 1-1321): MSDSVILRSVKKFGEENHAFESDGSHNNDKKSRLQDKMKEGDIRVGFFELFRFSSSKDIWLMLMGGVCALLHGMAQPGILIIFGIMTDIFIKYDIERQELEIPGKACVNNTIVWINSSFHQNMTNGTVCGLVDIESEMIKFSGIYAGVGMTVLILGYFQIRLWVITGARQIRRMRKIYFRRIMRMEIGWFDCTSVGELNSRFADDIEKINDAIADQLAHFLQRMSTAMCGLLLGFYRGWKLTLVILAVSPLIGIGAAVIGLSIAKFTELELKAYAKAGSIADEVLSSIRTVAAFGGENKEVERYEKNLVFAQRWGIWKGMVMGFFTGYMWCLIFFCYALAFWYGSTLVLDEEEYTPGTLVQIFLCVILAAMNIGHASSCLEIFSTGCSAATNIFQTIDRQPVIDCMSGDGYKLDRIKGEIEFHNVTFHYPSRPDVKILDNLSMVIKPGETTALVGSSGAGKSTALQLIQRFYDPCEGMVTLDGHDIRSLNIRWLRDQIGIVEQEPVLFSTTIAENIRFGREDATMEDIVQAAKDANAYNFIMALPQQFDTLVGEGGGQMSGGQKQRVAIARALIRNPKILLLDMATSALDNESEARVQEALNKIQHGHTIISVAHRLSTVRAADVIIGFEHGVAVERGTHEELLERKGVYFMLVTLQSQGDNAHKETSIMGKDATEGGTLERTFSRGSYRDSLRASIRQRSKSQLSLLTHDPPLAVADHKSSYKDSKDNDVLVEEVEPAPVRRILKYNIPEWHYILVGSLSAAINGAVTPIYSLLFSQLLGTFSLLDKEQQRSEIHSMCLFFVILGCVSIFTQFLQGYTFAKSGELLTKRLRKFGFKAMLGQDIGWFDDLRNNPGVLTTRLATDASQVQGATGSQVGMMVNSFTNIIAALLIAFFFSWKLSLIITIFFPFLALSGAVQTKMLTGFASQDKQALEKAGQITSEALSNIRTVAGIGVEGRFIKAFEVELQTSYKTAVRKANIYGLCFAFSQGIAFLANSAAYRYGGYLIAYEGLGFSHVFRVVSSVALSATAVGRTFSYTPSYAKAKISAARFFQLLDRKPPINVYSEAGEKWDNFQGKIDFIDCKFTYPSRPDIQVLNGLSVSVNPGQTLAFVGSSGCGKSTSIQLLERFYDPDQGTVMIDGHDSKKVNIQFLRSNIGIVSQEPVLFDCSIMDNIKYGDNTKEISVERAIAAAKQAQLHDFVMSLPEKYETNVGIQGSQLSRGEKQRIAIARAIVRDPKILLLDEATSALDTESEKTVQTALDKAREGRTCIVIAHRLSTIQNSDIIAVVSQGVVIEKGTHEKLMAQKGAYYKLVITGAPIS
Assay: [^3H] TC injection experiment in vivo with pharmacokinetic analysis
Set-up: species or system SD rat
Details: for CLbile, liver / CLbile, plasma / CLtotal / Css, liver / Css, plasma: [^3H] TC, mean ± standard error
Protocol: Male SD rats (6- to 7-week-old) were purchased from Nippon SLC. All the animals were bred under day-night reversal conditions. They were treated under standard conditions based on the protection of animals. Feed and water were given without any limitation.
It is to be noted that the present study was carried out in accordance with the guidelines determined by the animal experiment committee in the university. 4PBA or a vehicle was given to each SD rat via a tube, for a certain period of time (5, 10, and 15 days), at various doses ([…]). After completion of the 4PBA treatment, a [^3H] TC injection experiment was carried out in vivo (see Hirano et al., Mol Pharmacol 68: 800-807. 2005). [^3H] TC dissolved in a normal saline was injected into each rat, via a cannula inserted into the femoral vein thereof, at a rate of 70 ng/min/kg for 90 minutes. Blood and bile were collected for a certain period of time. Radioactivity in plasma, bile, and liver was measured.
The total clearance of plasma (CLtotal) the clearance of bile standardized with circulating plasma (CLbile, plasma), and the clearance of bile standardized with the concentration in the liver (CLbile, liver) were calculated using the following formulae:
CLbile, plasma=Vss, bile/Css, plasma; and
CLbile, liver=Vss, bile/Css, liver
(wherein “I,” “Css, plasma,” Vss, bile” and “Css, and liver” represent, respectively, an injection rate (ng/min/kg), a plasma concentration in a steady state ([…]), a bile elimination rate in a steady state (ng/min/kg), and a mean liver concentration (ng/ml)). The plasma concentration in a steady state (Css, plasma) indicates the mean value of plasma [^3H] TC concentrations at time points of 15, 30, 60, and 90 minutes. The bile elimination rate (Vss, bile) indicates the mean value of the bile elimination rates of [^3H] TC at time points of 10-15 minutes, 25-30 minutes, 55-60 minutes, and 85-90 minutes. The mean liver concentration (Css, liver) indicates the mean value of liver [^3H] TC concentrations at the termination of the in vivo experiment.

[1] = 4PBA (0.2 g/kg/day), N = 3, SD rats
[2] = 4PBA (0.6 g/kg/day), N = 9, SD rats
[3] = 4PBA (2.4 g/kg/day), N = 3, SD rats

O=C(O)CCCc1ccccc1 [4PBA, 4-phenylbutyric acid]
CLbile, liver with respect to [^3H] TC, greater than vehicle-treated rats (0.6 k/kg/day for 10 days): 2 times
CLbile, plasma with respect to [^3H] TC, 4PBA-treated vs vehicle-treated SD rats (0.6 k/kg/day for 10 days): no significant difference
CLtotal with respect to [^3H] TC, 4PBA-treated vs vehicle-treated SD rats (0.6 k/kg/day for 10 days): no significant difference
Css, liver of [^3H] TC as fraction of that in vehicle-treated SD rats (0.6 k/kg/day for 10 days): ½
Css, plasma of [^3H] TC, 4PBA-treated vs vehicle-treated SD rats (0.6 k/kg/day for 10 days): no significant difference
Vss, bile of [^3H] TC, 4PBA-treated vs vehicle-treated SD rats (0.6 k/kg/day for 10 days): no significant difference
CLbile, liver [1]: 19.0 ± 3.9 mL/min/kg
CLbile, plasma [1]: 26.3 ± 2.0 mL/min/kg
CLtotal [1]: 26.6 ± 3.8 mL/min/kg
Css, liver [1]: 3.8 ± 0.7 ng/mL
Css, plasma [1]: 2.6 ± 0.2 ng/mL
CLbile, liver [2]: 29.3 ± 6.1 mL/min/kg
CLbile, plasma [2]: 32.3 ± 2.9 mL/min/kg
CLtotal [2]: 30.7 ± 3.7 mL/min/kg
Css, liver [2]: 2.6 ± 0.5 ng/mL
Css, plasma [2]: 2.0 ± 0.2 ng/mL
CLbile, liver [3]: 19.2 ± 3.2 mL/min/kg
CLbile, plasma [3]: 23.9 ± 4.7 mL/min/kg
CLtotal [3]: 29.6 ± 3.5 mL/min/kg
Css, liver [3]: 5.9 ± 1.8 ng/mL
Css, plasma [3]: 3.3 ± 0.7 ng/mL
CLbile, liver (4PBA (5 days), N = 6, SD rats): 21.7 ± 3.0 mL/min/kg
CLbile, plasma (4PBA (5 days), N = 6, SD rats): 32.3 ± 8.5 mL/min/kg
CLtotal (4PBA (5 days), N = 6, SD rats): 26.6 ± 3.8 mL/min/kg
Css, liver (4PBA (5 days), N = 6, SD rats): 3.1 ± 0.5 ng/mL
Css, plasma (4PBA (5 days), N = 6, SD rats): 2.3 ± 0.3 ng/mL
CLbile, liver (4PBA (10 days), N = 9, SD rats): 29.3 ± 6.1 mL/min/kg
CLbile, plasma (4PBA (10 days), N = 9, SD rats): 32.3 ± 2.9 mL/min/kg
CLtotal (4PBA (10 days), N = 9, SD rats): 30.7 ± 3.7 mL/min/kg
Css, liver (4PBA (10 days), N = 9, SD rats): 2.6 ± 0.5 ng/mL
Css, plasma (4PBA (10 days), N = 9, SD rats): 2.0 ± 0.2 ng/mL
CLbile, liver (4PBA (15 days), N = 3, SD rats): 29.9 ± 1.5 mL/min/kg
CLbile, plasma (4PBA (15 days), N = 3, SD rats): 33.2 ± 2.0 mL/min/kg
CLtotal (4PBA (15 days), N = 3, SD rats): 27.5 ± 2.7 mL/min/kg
Css, liver (4PBA (15 days), N = 3, SD rats): 2.3 ± 0.2 ng/mL
Css, plasma (4PBA (15 days), N = 3, SD rats): 2.1 ± 0.2 ng/mL
side effects (SD rats, under all conditions (various times and doses)): No clear side effects were recognized
